Experimental data published in ChEMBL document CHEMBL4184109, “Design, synthesis, and structure-activity relationship studies of novel tetrazole antifungal agents with potent activity, broad antifungal spectrum and high selectivity” (Bioorg Med Chem Lett, 2018).
Values after ≈ are worked out from the molar mass of the structure shown.

How the values were obtained:
Type in all cases: functional
[1] = system: Cryptococcus neoformans; experiment: Antifungal activity against Cryptococcus neoformans after 72 hrs by serial dilution method
[2] = system: Candida parapsilosis; experiment: Antifungal activity against Candida parapsilosis ATCC 22019 after 24 hrs by serial dilution method; conditions: Lodderomyces parapsilosis, ATCC 22019, 24 h
[3] = system: Candida albicans; experiment: Antifungal activity against Candida albicans SC5314 after 24 hrs by serial dilution method; conditions: SC5314, 24 h
[4] = system: Aspergillus fumigatus; experiment: Antifungal activity against Aspergillus fumigatus after 48 hrs by serial dilution method
[5] = system: Candida albicans; experiment: Antifungal activity against Candida albicans Y0109 after 24 hrs by serial dilution method; conditions: Y0109, 24 h
[6] = system: Nakaseomyces glabratus; experiment: Antifungal activity against Candida glabrata after 24 hrs by serial dilution method
[7] = system: Trichophyton rubrum; experiment: Antifungal activity against Trichophyton rubrum by serial dilution method
[8] = system: Nannizzia gypsea; experiment: Antifungal activity against Microsporum gypseum by serial dilution method

Row | Compound | MIC80 [1] [mg/L] | MIC80 [2] [mg/L] | MIC80 [3] [mg/L] | MIC80 [4] [mg/L] | MIC80 [5] [mg/L] | MIC80 [6] [mg/L] | MIC80 [7] [mg/L] | MIC80 [8] [mg/L]
1 | CCC(CC)n1ncn(-c2ccc(C(F)(F)C(O)(Cn3cnnn3)c3ccc(F)cc3F)nc2)c1=O (stereo not given) | 4 (≈ 7.9 µM) | 0.25 (≈ 0.494 µM) | 1 (≈ 1.97 µM) | > 8 | 2 (≈ 3.95 µM) | 1 (≈ 1.97 µM) |  | 
2 | CC(O)(CO)Cn1ncn(-c2ccc(C(F)(F)C(O)(Cn3cnnn3)c3ccc(F)cc3F)nc2)c1=O (stereo not given) | > 8 | > 8 | > 8 | > 8 | > 8 | > 8 |  | 
3 | O=c1n(-c2ccc(C(F)(F)C(O)(Cn3cnnn3)c3ccc(F)cc3F)nc2)cnn1CCO (stereo not given) | > 8 | > 8 | > 8 | > 8 | > 8 | > 8 |  | 
4 | CC(C)(O)Cn1ncn(-c2ccc(C(F)(F)C(O)(Cn3cnnn3)c3ccc(F)cc3F)nc2)c1=O (stereo not given) | > 8 | 4 (≈ 7.87 µM) | > 8 | > 8 | > 8 | > 8 |  | 
5 | COCCOc1ccc(Cn2ncn(-c3ccc(C(F)(F)C(O)(Cn4cnnn4)c4ccc(F)cc4F)nc3)c2=O)cc1 (stereo not given) | 0.5 (≈ 0.833 µM) | 2 (≈ 3.33 µM) | 1 (≈ 1.67 µM) | > 64 | 1 (≈ 1.67 µM) | 2 (≈ 3.33 µM) |  | 
6 | CS(=O)(=O)CCn1ncn(-c2ccc(C(F)(F)C(O)(Cn3cnnn3)c3ccc(F)cc3F)nc2)c1=O (stereo not given) | > 8 | > 8 | > 8 | > 8 | > 8 | > 8 |  | 
7 | CCn1ncn(-c2ccc(C(F)(F)C(O)(Cn3cnnn3)c3ccc(F)cc3F)nc2)c1=O (stereo not given) | 8 (≈ 17.2 µM) | 2 (≈ 4.31 µM) | 2 (≈ 4.31 µM) | > 8 | 2 (≈ 4.31 µM) | 8 (≈ 17.2 µM) |  | 
8 | CC1(C)CCC(n2ncn(-c3ccc(C(F)(F)C(O)(Cn4cnnn4)c4ccc(F)cc4F)nc3)c2=O)CC1 (stereo not given) | 4 (≈ 7.32 µM) | 4 (≈ 7.32 µM) | 4 (≈ 7.32 µM) | > 64 | 4 (≈ 7.32 µM) | 8 (≈ 14.6 µM) | 0.125 (≈ 0.229 µM) | > 64
9 | O=c1n(-c2ccc(C(F)(F)C(O)(Cn3cnnn3)c3ccc(F)cc3F)nc2)cnn1C1CCCCCCC1 (stereo not given) | 2 (≈ 3.66 µM) | 2 (≈ 3.66 µM) | 2 (≈ 3.66 µM) | > 64 | 1 (≈ 1.83 µM) | 4 (≈ 7.32 µM) | 1 (≈ 1.83 µM) | > 64
10 | CC(C)n1ncn(-c2ccc(C(F)(F)C(O)(Cn3cnnn3)c3ccc(F)cc3F)nc2)c1=O (stereo not given) | 8 (≈ 16.7 µM) | 0.5 (≈ 1.05 µM) | 1 (≈ 2.09 µM) | > 8 | 1 (≈ 2.09 µM) | 2 (≈ 4.18 µM) |  | 
11 | CS(=O)(=O)c1ccc(Cn2ncn(-c3ccc(C(F)(F)C(O)(Cn4cnnn4)c4ccc(F)cc4F)nc3)c2=O)cc1 (stereo not given) | > 64 | > 64 | > 64 | > 64 | > 64 | > 64 |  | 
12 | O=c1n(-c2ccc(C(F)(F)C(O)(Cn3cnnn3)c3ccc(F)cc3F)nc2)cnn1Cc1ccc(OC(F)(F)F)cc1 (stereo not given) | 2 (≈ 3.28 µM) | 0.5 (≈ 0.819 µM) | 1 (≈ 1.64 µM) | > 8 | 1 (≈ 1.64 µM) | 4 (≈ 6.55 µM) |  | 
13 | CSc1ccc(Cn2ncn(-c3ccc(C(F)(F)C(O)(Cn4cnnn4)c4ccc(F)cc4F)nc3)c2=O)cc1 (stereo not given) | 2 (≈ 3.49 µM) | 4 (≈ 6.99 µM) | 4 (≈ 6.99 µM) | > 64 | 4 (≈ 6.99 µM) | 4 (≈ 6.99 µM) |  | 
14 | O=c1n(-c2ccc(C(F)(F)C(O)(Cn3cnnn3)c3ccc(F)cc3F)nc2)cnn1Cc1ccc(F)cc1 (stereo not given) | 2 (≈ 3.67 µM) | 0.25 (≈ 0.459 µM) | 0.5 (≈ 0.918 µM) | > 8 | 1 (≈ 1.84 µM) | 2 (≈ 3.67 µM) |  | 
15 | O=c1n(-c2ccc(C(F)(F)C(O)(Cn3cnnn3)c3ccc(F)cc3F)nc2)cnn1CC#CCO (stereo not given) | > 8 | 4 (≈ 7.93 µM) | > 8 | > 8 | > 8 | > 8 |  | 
16 | O=c1n(-c2ccc(C(F)(F)C(O)(Cn3cnnn3)c3ccc(F)cc3F)nc2)cnn1C1CCC1 (stereo not given) | 0.5 (≈ 1.02 µM) | 0.5 (≈ 1.02 µM) | 1 (≈ 2.04 µM) | > 64 | 0.25 (≈ 0.51 µM) | 1 (≈ 2.04 µM) | 8 (≈ 16.3 µM) | > 64
17 | O=c1n(-c2ccc(C(F)(F)C(O)(Cn3cnnn3)c3ccc(F)cc3F)nc2)cnn1Cc1ccccc1 (stereo not given) | 4 (≈ 7.6 µM) | 0.25 (≈ 0.475 µM) | 0.5 (≈ 0.95 µM) | > 8 | 1 (≈ 1.9 µM) | 4 (≈ 7.6 µM) |  | 
18 | O=c1n(-c2ccc(C(F)(F)C(O)(Cn3cnnn3)c3ccc(F)cc3F)nc2)cnn1Cc1ccncc1 (stereo not given) | 2 (≈ 3.79 µM) | 8 (≈ 15.2 µM) | 4 (≈ 7.58 µM) | > 64 | 4 (≈ 7.58 µM) | 4 (≈ 7.58 µM) |  | 
19 | COc1ccc(Cn2ncn(-c3ccc(C(F)(F)C(O)(Cn4cnnn4)c4ccc(F)cc4F)nc3)c2=O)cc1 (stereo not given) | 2 (≈ 3.59 µM) | 0.25 (≈ 0.449 µM) | 0.5 (≈ 0.899 µM) | > 8 | 0.5 (≈ 0.899 µM) | 2 (≈ 3.59 µM) |  | 
